From ChEMBL document CHEMBL4840359, “N-Terminus to Arginine Side-Chain Cyclization of Linear Peptidic Neuropeptide Y Y4 Receptor Ligands Results in Picomolar Binding Constants” (J Med Chem, 2021)
Activity calls are given as the source filed them. The rule behind the calls is not given here. Starred links: 1 amine or outer side, 2 acyl side, 3 side chain; linkers in the order of their positions; H or OH if unused. Residues, ends and D or L forms follow the SMILES beside them. Groups on a side chain read outwards from the residue. *: point of attachment. Suc = O=C(CCC(=O)[*:2])[*:1]; CO = O=C([*:1])[*:2]; NH(CH2)3NH2 = NCCCN*

Columns and labels:
[1] = target: T1, Neuropeptide Y receptor type 4 (Homo sapiens, UniProt P50391); experiment: Displacement of [3H]UR-KK200 from human neuropeptide Y Y4 receptor expressed in CHO-mtAEQ cells co-expressing Gqi5 measured after 90 mins by scintillation counting analysis; format: cell-based
[2] = target: T1, Neuropeptide Y receptor type 4; experiment: Displacement of [3H]UR-KK200 from human neuropeptide Y Y4 receptor expressed in CHO-mtAEQ cells co-expressing Gqi5 assessed as fold change in affinity measured after 90 mins by scintillation counting analysis relative to Ac-Arg-Tyr-Arg-Leu-Arg-Tyr-NH2; format: cell-based; settings: filed as agonist
[3] = target: T2, Neuropeptide Y receptor type 1 (Homo sapiens, UniProt P25929); experiment: Displacement of [3H]UR-MK299 from human neuropeptide Y Y1 receptor in human SK-N-MC cells measured after 90 mins by scintillation counting analysis; format: cell-based
T2 sequence (P25929 whole entry): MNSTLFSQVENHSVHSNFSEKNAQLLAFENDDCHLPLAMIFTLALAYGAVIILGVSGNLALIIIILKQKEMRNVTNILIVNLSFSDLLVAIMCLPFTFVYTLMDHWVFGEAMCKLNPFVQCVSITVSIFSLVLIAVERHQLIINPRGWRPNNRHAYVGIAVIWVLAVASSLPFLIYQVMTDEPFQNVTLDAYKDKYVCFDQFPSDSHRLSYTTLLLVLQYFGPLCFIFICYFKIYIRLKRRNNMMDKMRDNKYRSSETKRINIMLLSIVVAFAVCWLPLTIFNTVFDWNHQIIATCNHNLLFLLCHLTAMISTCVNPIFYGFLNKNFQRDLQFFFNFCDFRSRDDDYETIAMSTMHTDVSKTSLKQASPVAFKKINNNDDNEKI

[4] = target: T3, Neuropeptide Y receptor type 2 (Homo sapiens, UniProt P49146); experiment: Displacement of [3H]UR-MK299 from human neuropeptide Y Y2 receptor expressed in CHO cells measured after 90 mins by scintillation counting analysis; format: cell-based
T3 sequence (P49146 whole entry): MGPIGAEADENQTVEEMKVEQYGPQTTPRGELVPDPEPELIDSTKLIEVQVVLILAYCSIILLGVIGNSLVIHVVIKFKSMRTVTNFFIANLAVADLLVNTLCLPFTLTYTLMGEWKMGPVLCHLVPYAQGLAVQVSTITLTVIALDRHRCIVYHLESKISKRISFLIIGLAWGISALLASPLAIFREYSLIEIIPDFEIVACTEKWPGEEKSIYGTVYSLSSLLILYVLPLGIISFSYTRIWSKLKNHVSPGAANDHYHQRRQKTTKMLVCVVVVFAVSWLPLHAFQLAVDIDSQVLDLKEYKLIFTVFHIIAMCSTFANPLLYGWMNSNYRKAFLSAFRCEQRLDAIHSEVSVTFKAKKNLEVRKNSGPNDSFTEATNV

[5] = target: T4, Neuropeptide Y receptor type 5 (Homo sapiens, UniProt Q15761); experiment: Displacement of [3H]propionyl-pNPY from human neuropeptide Y Y5 receptor in human HEC-1B cells measured after 90 mins by scintillation counting analysis; format: cell-based, HEC-1B cell line
T4 sequence (Q15761 whole entry): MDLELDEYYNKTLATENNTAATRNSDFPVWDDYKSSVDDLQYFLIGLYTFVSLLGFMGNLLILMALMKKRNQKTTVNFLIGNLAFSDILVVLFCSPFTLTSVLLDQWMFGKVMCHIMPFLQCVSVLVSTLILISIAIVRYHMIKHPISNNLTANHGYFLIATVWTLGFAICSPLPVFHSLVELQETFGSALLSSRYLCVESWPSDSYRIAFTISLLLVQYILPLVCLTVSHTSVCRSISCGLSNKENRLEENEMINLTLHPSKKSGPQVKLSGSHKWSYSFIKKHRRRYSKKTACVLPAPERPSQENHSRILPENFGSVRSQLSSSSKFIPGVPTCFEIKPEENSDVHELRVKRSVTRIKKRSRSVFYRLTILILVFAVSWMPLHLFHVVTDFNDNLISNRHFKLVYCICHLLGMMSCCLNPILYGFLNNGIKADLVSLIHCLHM

Homo sapiens [6] = species on record: Homo sapiens; experiment: (§1) Selectivity ratio, Ki for displacement of [3H]UR-MK299 from human neuropeptide Y Y1 receptor in human SK-N-MC cells measured after 90 mins by scintillation counting analysis to Ki for displacement of [3H]UR-KK200 from human neuropeptide Y Y4 receptor expressed in CHO-mtAEQ cells co-expressing Gqi5 measured after 90 mins by scintillation counting analysis; format: cell-based
Homo sapiens [7] = species on record: Homo sapiens; experiment: Selectivity ratio, Ki for displacement of [3H]UR-MK299 from human neuropeptide Y Y2 receptor expressed in CHO cells measured after 90 mins by scintillation counting analysis to Ki for displacement of [3H]UR-KK200 from human neuropeptide Y Y4 receptor expressed in CHO-mtAEQ cells co-expressing Gqi5 measured after 90 mins by scintillation counting analysis; format: cell-based
Homo sapiens [8] = species on record: Homo sapiens; experiment: as §1, with “[3H]propionyl-pNPY” for “[3H]UR-MK299”, “Y5” for “Y1”, “HEC-1B” for “SK-N-MC”; format: cell-based
[9] = target: T1, Neuropeptide Y receptor type 4; experiment: Agonist activity at human neuropeptide Y Y4 receptor expressed in HEK293T-ARRB1 cells assessed as stimulation of beta-arrestin 1 recruitment by multimode plate reader; format: functional, cell-based
[10] = target: T1, Neuropeptide Y receptor type 4; experiment: Intrinsic activity at human neuropeptide Y Y4 receptor expressed in HEK293T-ARRB1 cells assessed as stimulation of beta-arrestin 1 recruitment by multimode plate reader relative to hPP; format: functional, cell-based
[11] = target: T1, Neuropeptide Y receptor type 4; experiment: Agonist activity at human neuropeptide Y Y4 receptor expressed in HEK293T-ARRB2 cells assessed as stimulation of beta-arrestin 2 recruitment by multimode plate reader; format: functional, cell-based
[12] = target: T1, Neuropeptide Y receptor type 4; experiment: Intrinsic activity at human neuropeptide Y Y4 receptor expressed in HEK293T-ARRB2 cells assessed as stimulation of beta-arrestin 2 recruitment by multimode plate reader relative to hPP; format: functional, cell-based
[13] = target: T1, Neuropeptide Y receptor type 4; experiment: Agonist activity at human neuropeptide Y Y4 receptor expressed in CHO-mtAEQ cells co-expressing Gqi5 by calcium aequorin assay; format: functional, cell-based
[14] = target: T1, Neuropeptide Y receptor type 4; experiment: Intrinsic activity at human neuropeptide Y Y4 receptor expressed in CHO-mtAEQ cells co-expressing Gqi5 by calcium aequorin assay; format: functional, cell-based
[15] = Stability in human plasma assessed as intact peptide measured after 30 mins at 37 degC by RP-HPLC analysis; format: ADME, cell-free; settings: read-out: Stability
[16] = Stability in human plasma assessed as intact peptide measured after 1 hr at 37 degC by RP-HPLC analysis; format: ADME, cell-free; settings: read-out: Stability
[17] = Stability in human plasma assessed as intact peptide measured after 2 hr at 37 degC by RP-HPLC analysis; format: ADME, cell-free; settings: read-out: Stability
[18] = Stability in human plasma assessed as intact peptide measured after 6 hr at 37 degC by RP-HPLC analysis; format: ADME, cell-free; settings: read-out: Stability
[19] = Stability in human plasma assessed as half life at 37 degC by RP-HPLC analysis; format: ADME, cell-free

T1 sequence (P50391 whole entry): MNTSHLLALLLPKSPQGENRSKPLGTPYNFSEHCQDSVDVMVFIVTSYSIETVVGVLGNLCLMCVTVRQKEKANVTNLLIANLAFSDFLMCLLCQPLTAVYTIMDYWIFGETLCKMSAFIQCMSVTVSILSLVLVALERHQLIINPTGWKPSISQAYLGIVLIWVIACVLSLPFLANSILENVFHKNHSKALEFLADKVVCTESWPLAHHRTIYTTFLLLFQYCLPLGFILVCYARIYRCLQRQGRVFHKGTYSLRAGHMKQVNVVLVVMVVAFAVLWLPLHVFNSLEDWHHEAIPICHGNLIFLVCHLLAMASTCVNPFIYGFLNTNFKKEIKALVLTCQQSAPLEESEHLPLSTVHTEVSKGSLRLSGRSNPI

SMILES	Ki ([1]; read-out: Ki)	Ki ([1]; read-out: pKi (converted))	fold change (FC) [2]	Ki ([3]; read-out: pKi (converted))	Ki ([4]; read-out: Ki)	Ki ([4]; read-out: pKi (converted))	Ki ([5]; hec-1b cell line, read-out: Ki)	Ki ([5]; read-out: pKi (converted))	Selectivity ratio (Homo sapiens [6])	Selectivity ratio (Homo sapiens [7])	Selectivity ratio (Homo sapiens [8])	EC50 ([9]; read-out: EC50)	Intrinsic activity [10]	EC50 [11]	Intrinsic activity [12]	EC50 [13]	Intrinsic activity [14]	Ki ([5]; read-out: Ki)	EC50 ([9]; read-out: pEC50 (converted))	Ki ([3]; read-out: Ki)	further results
N=C(N)NCCC[C@@H]1NC(=O)CCC(=O)NCCCNC(=O)NC(=N)NCCC[C@@H](C(=O)N[C@@H](Cc2c[nH]c3ccccc23)C(=O)N[C@@H](CCCNC(=N)N)C(=O)N[C@@H](Cc2ccc(O)cc2)C(N)=O)NC(=O)[C@H](Cc2ccc(O)cc2)NC1=O (HELM PEPTIDE1{R.Y.[N=C(NCCC[C@H](N[*:1])C(=O)[*:2])N[*:3]].W.R.Y.[am]}|CHEM1{[O=C(CCC(=O)[*:1])NCCCNC(=O)[*:2]]}$PEPTIDE1,CHEM1,1:R1-1:R1|PEPTIDE1,CHEM1,3:R3-1:R2$$$V2.0)	28 nM	28.8 nM	-8.2	> 10000 nM	> 10000 nM	> 10000 nM	> 10000 nM	> 10000 nM	> 350	> 350	> 350	520 nM	35%	355 nM	47%	380 nM	45%				
N=C(N)NCCC[C@H](NC(=O)CCC(=O)O)C(=O)N[C@@H](Cc1ccc(O)cc1)C(=O)N[C@@H](CCCNC(=N)NC(=O)NCCCN)C(=O)N[C@@H](Cc1c[nH]c2ccccc12)C(=O)N[C@@H](CCCNC(=N)N)C(=O)N[C@@H](Cc1ccc(O)cc1)C(N)=O (Suc-RYR([CO-NH(CH2)3NH2])WRY-NH2)	63 nM	56.2 nM	-19	> 10000 nM	> 3000 nM	> 3160 nM		> 3160 nM	> 150	> 47	> 47		inactive	89.1 nM	inactive	91.2 nM	inactive	> 3000 nM	123 nM		
CC(C)C[C@H](NC(=O)[C@@H]1CCCNC(=N)NC(=O)NCCCNC(=O)CCC(=O)N[C@@H](CCCNC(=N)N)C(=O)N[C@@H](Cc2ccc(O)cc2)C(=O)N1)C(=O)N[C@@H](CCCNC(=N)N)C(=O)N[C@@H](Cc1ccc(O)cc1)C(N)=O	0.13 nM	0.117 nM	26	> 10000 nM	> 3000 nM	> 3160 nM		> 1000 nM	> 76000	> 23000	> 23000	3.5 nM	90%	5.37 nM	87%	15.1 nM	83%	> 3000 nM			
N=C(N)NCCC[C@H](NC(=O)CCC(=O)O)C(=O)N[C@@H](Cc1ccc(O)cc1)C(=O)N[C@@H](CCCNC(=N)NC(=O)NCCCCN)C(=O)N[C@@H](Cc1c[nH]c2ccccc12)C(=O)N[C@@H](CCCNC(=N)N)C(=O)N[C@@H](Cc1ccc(O)cc1)C(N)=O (single isomer, unassigned)	50 nM		-15	> 3160 nM	> 3000 nM	> 3160 nM	> 10000 nM	> 10000 nM	> 60	> 60	> 200		inactive	145 nM	inactive	75.9 nM	inactive		85.1 nM	> 3000 nM	
CC(C)C[C@H](NC(=O)[C@@H]1CCC(=O)NCC(=O)N[C@H](CCCNC(=N)N)C(=O)N[C@@H](CCCNC(=N)N)C(=O)N1)C(=O)N[C@@H](CCCNC(=N)N)C(=O)N[C@@H](Cc1ccc(O)cc1)C(N)=O	30 nM	28.8 nM	-8.8	> 3160 nM	> 3000 nM	> 3160 nM		> 3160 nM	> 100	> 100	> 100		inactive	> 10000 nM	inactive	> 10000 nM	inactive	> 3000 nM	> 10000 nM	> 3000 nM	
N=C(N)NCCC[C@@H]1NC(=O)CCC(=O)NCCCCNC(=O)NC(=N)NCCC[C@@H](C(=O)N[C@@H](Cc2c[nH]c3ccccc23)C(=O)N[C@@H](CCCNC(=N)N)C(=O)N[C@@H](Cc2ccc(O)cc2)C(N)=O)NC(=O)[C@H](Cc2ccc(O)cc2)NC1=O (HELM PEPTIDE1{R.Y.[N=C(NCCC[C@H](N[*:1])C(=O)[*:2])N[*:3]].W.R.Y.[am]}|CHEM1{[O=C(CCC(=O)[*:1])NCCCCNC(=O)[*:2]]}$PEPTIDE1,CHEM1,1:R1-1:R1|PEPTIDE1,CHEM1,3:R3-1:R2$$$V2.0)	1.6 nM		2.1	> 10000 nM	> 10000 nM	> 10000 nM	> 10000 nM	> 10000 nM	> 1800	> 6200	> 6200	130 nM	84%	95.5 nM	83%	191 nM	61%			> 3000 nM	
CC(=O)N[C@@H](CCCNC(=N)N)C(=O)N[C@@H](Cc1ccc(O)cc1)C(=O)N[C@@H](CCCN/C(N)=N/C(=O)NCCCCN)C(=O)N[C@@H](CC(C)C)C(=O)N[C@@H](CCCNC(=N)N)C(=O)N[C@@H](Cc1ccc(O)cc1)C(N)=O (HELM PEPTIDE1{[ac].R.Y.[NCCCCNC(=O)/N=C(\N)NCCC[C@H](N[*:1])C(=O)[*:2]].L.R.Y.[am]}$$$$V2.0)																					remaining at 0.5 h [15]: > 99%; remaining at 1 h [16]: 77%; remaining at 2 h [17]: 38%; remaining at 6 h [18]: 9%; half-life [19]: 1.7 h
CC(C)C[C@H](NC(=O)[C@H](CCCNC(=N)N)NC(=O)[C@@H]1CCC(=O)N[C@@H](CCCNC(=N)N)C(=O)NCC(=O)N[C@@H](Cc2ccc(O)cc2)C(=O)N1)C(=O)N[C@@H](CCCNC(=N)N)C(=O)N[C@@H](Cc1ccc(O)cc1)C(N)=O (HELM PEPTIDE1{R.G.Y.E.R.L.R.Y.[am]}$PEPTIDE1,PEPTIDE1,1:R1-4:R3$$$V2.0)	2.5 nM		1.4	457 nM	> 10000 nM	> 10000 nM		> 3160 nM	300	> 4000	> 1200	290 nM	64%	178 nM	74%	676 nM	48%	> 3000 nM		760 nM	
